Test results taken from patent US20210330611A1, “THERAPY FOR NEUROLOGICAL DISEASES/DISORDERS” (priority 2020, published 2021).
Where a name gives a salt, the structure may show the parent alone. Read-outs that look alike come from different tables or passages of the source. Where a SMILES comes first, the peptide text is derived from it. [ ]: non-standard residue; d: D form. pGlu = O=C1CC[C@@H](C(=O)O)N1; Thz = O=C(O)[C@@H]1CSCN1

Tests used:
primary rat microglia [1] = experiment: Cell toxicity (dead cells, size <150 μm2) in coated fibrin (cFib) assay; conditions: primary microglia HTS;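 also: share of dead cells sized under 150 µm2 at 10 µM in fibrin-stimulated microglia HTS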
[2] = test system: fibrin- and LPS-induced microglia activation; experiment: cells; assay type: cell-based, rat
[3] = test system: LPS-induced microglia activation; experiment: Image-based assay of LPS-induced microglia activation (HTS and dose response); assay type: cell-based, rat; conditions: for inhibition at 10 µM: Rattus norvegicus, Microglia, read-out: LPS % inhibition
primary rat microglia [4] = test system: primary rat microglia
[5] = test system: fibrin-induced microglia activation; experiment: Image-based assay of fibrin-induced microglia activation (HTS and dose response); assay type: cell-based, rat; conditions: primary microglia HTS, fibrin stimulation; for inhibition at 10 µM: Rattus norvegicus, Microglia, read-out: Fibrin % inhibition
[6] = fibrin assay, dead cells (size <150 μm2)
[7] = quadrant by fibrin and LPS inhibition, HTS at 10 μM
[8] = primary microglia HTS, LPS stimulation, compounds at 10 μM
[9] = fibrin stimulation, cell size <150 μm2 as marker of toxicity
[10] = classification by fibrin and LPS inhibition in HTS
[11] = cell size >800 μm2 as marker of activation

| Compound | Fibrin % cell toxicity (primary rat microglia [1]; [6]) | Quadrant (FIG. 5b) [2, 7] | inhibition at 10 µM [3, 8] | LPS % cell toxicity (primary rat microglia [4]; rat) | inhibition at 10 µM ([5]; compounds at 10 μM) | Fibrin % cell toxicity (primary rat microglia [1]; [9]) | Quadrant (FIG. 5b) [2, 10] | inhibition at 10 µM ([3]; 48 h) | inhibition at 10 µM [5, 11] | LPS % inhibition [3] | LPS % cell toxicity (primary rat microglia [4]) | Fibrin % inhibition [5, 11] | inhibition at 10 µM ([3]; 48 h, primary microglia HTS, LPS stimulation, cell size >800 μm2 as marker of activation) |
| --- | --- | --- | --- | --- | --- | --- | --- | --- | --- | --- | --- | --- | --- |
| C[C@@H]1C[C@H]2[C@@H]3CCC4=CC(=O)C=C[C@]4(C)[C@@]3(Cl)[C@@H](O)C[C@]2(C)[C@@]1(OC(=O)c1ccco1)C(=O)CCl [Mometasone Furoate] | 3% | Q2 | 106% | 4% | 100% |  |  |  |  |  |  |  |  |
| CC(C)(C)NCC(O)COc1cccc2c1CC(O)C(O)C2 (centres unmarked) [Nadolol] | 4% | Q2 | 108% | 3% | 107% |  |  |  |  |  |  |  |  |
| O=C1CC[C@@]2(O)[C@H]3Cc4ccc(O)c5c4[C@@]2(CCN3CC2CC2)[C@H]1O5 [Naltrexone Hydrochloride] | 4% | Q2 | 79% | 2% | 107% |  |  |  |  |  |  |  |  |
| Cc1c(NC(=O)c2cccnc2)c(=O)n(-c2ccccc2)n1C [Nifenazone] | 85% | Q2 | 132% | 78% | 114% |  |  |  |  |  |  |  |  |
| O=C(N/N=C/c1ccc([N+](=O)[O-])o1)c1ccc(O)cc1 [Nifuroxazide] | 6% | Q2 | 120% | 14% | 112% |  |  |  |  |  |  |  |  |
| CCC1(C)OC(=O)N(C)C1=O (centres unmarked) [Paramethadione] |  |  |  | 0% |  | 0% | Q4 | 3% | -15% |  |  |  |  |
| C#CCN(C)Cc1ccccc1 [Pargyline] |  |  |  | 0% |  | 1% | Q4 | 11% | -25% |  |  |  |  |
| NC[C@@H]1O[C@H](O[C@H]2[C@@H](O)[C@H](O[C@@H]3[C@@H](O)[C@H](N)C[C@H](N)[C@H]3O[C@H]3O[C@H](CO)[C@@H](O)[C@H](O)[C@H]3N)O[C@@H]2CO)[C@H](N)[C@@H](O)[C@@H]1O [Paromomycin Sulfate] |  |  |  | 0% |  | 1% | Q4 | 14% | 9% |  |  |  |  |
| CCC(=O)c1ccc(O)cc1 [Paroxypropione] |  |  |  | 0% |  | 1% | Q4 | 17% | -11% |  |  |  |  |
| NNC(=O)c1ccncc1.Nc1ccc(C(=O)O)c(O)c1 [Pasiniazid] |  |  |  |  |  | 1% | Q4 |  |  | 17% | 0% | −61% |  |
| C[C@H]1COc2c(C3(N)CC3)c(F)cc3c(=O)c(C(=O)O)cn1c23 [Pazufloxacin Mesylate, Pazufloxacin] |  |  |  |  |  | 1% | Q4 |  |  | 11% | 0% | −10% |  |
| CN1C(C)(C)CCCC1(C)C [Pempidine Tartrate] |  |  |  | 0% |  | 1% | Q4 | 13% | -19% |  |  |  |  |
| Nc1nc2c(ncn2CCC(CO)CO)c(=O)[nH]1 [Penciclovir] |  |  |  | 0% |  | 1% | Q4 | 4% | -44% |  |  |  |  |
| OC1(c2ccc(Cl)c(C(F)(F)F)c2)CCN(CCCC(c2ccc(F)cc2)c2ccc(F)cc2)CC1 [Penfluridol] |  |  |  | 0% |  | 1% | Q4 |  | 3% |  |  |  | 8% |
| C1CCc2nnnn2CC1 [Pentetrazole, Pentylenetetrazol] |  |  |  |  |  | 1% | Q4 |  |  | 18% | 1% | −12% |  |
| CCCN1C[C@H](CSC)C[C@@H]2c3cccc4[nH]cc(c34)C[C@H]21 [Pergolide] |  |  |  | 0% |  | 0% | Q4 | 16% | -18% |  |  |  |  |
| CCC[C@H](N[C@@H](C)C(=O)N1[C@H](C(=O)O)C[C@@H]2CCCC[C@@H]21)C(=O)OCC [Perindopril] |  |  |  | 0% |  | 0% | Q4 | 18% | -27% |  |  |  |  |
| CC1(C)C(C=C(Cl)Cl)C1C(=O)OCc1cccc(Oc2ccccc2)c1 (centres unmarked) [Permethrin] |  |  |  | 0% |  | 0% | Q4 | 11% | -21% |  |  |  |  |
| OCCN1CCN(CCCN2c3ccccc3Sc3ccc(Cl)cc32)CC1 [Perphenazine] |  |  |  | 1% |  | 1% | Q4 | 23% | 23% |  |  |  |  |

| Compound | Fibrin % cell toxicity (primary rat microglia [1]; [6]) | Quadrant (FIG. 5b) [2, 7] | inhibition at 10 µM [3, 8] | LPS % cell toxicity (primary rat microglia [4]; rat) | inhibition at 10 µM ([5]; compounds at 10 μM) | Fibrin % cell toxicity (primary rat microglia [1]; [9]) | Quadrant (FIG. 5b) [2, 10] | inhibition at 10 µM ([3]; 48 h) | inhibition at 10 µM [5, 11] | LPS % inhibition [3] | LPS % cell toxicity (primary rat microglia [4]) | Fibrin % inhibition [5, 11] | inhibition at 10 µM ([3]; 48 h, primary microglia HTS, LPS stimulation, cell size >800 μm2 as marker of activation) |
| --- | --- | --- | --- | --- | --- | --- | --- | --- | --- | --- | --- | --- | --- |
| CCOc1ccc(NC(C)=O)cc1 [Phenacetin] |  |  |  | 0% |  | 1% | Q4 | 16% | -5% |  |  |  |  |
| Nc1ccc(/N=N/c2ccccc2)c(N)n1 [Phenazopyridine] |  |  |  | 0% |  | 0% | Q4 | 6% | 9% |  |  |  |  |
| CC(Oc1ccccc1)C(=O)N[C@@H]1C(=O)N2[C@@H]1SC(C)(C)[C@@H]2C(=O)O (some centres unmarked) [Phenethicillin Potassium] |  |  |  | 0% |  | 0% | Q4 | 3% | -2% |  |  |  |  |
| O=C1c2ccccc2C(=O)C1c1ccccc1 [Phenindione] |  |  |  | 0% |  | 1% | Q4 | 0% | -10% |  |  |  |  |
| CCC1(c2ccccc2)C(=O)NC(=O)NC1=O [Phenobarbital] |  |  |  | 0% |  | 0% | Q4 | -7% | -22% |  |  |  |  |
| O=C1OC(c2ccc(O)cc2)(c2ccc(O)cc2)c2ccccc21 [Phenolphthalein] |  |  |  | 0% |  | 1% | Q4 | 13% | 10% |  |  |  |  |
| c1ccc2c(c1)Nc1ccccc1S2 [Phenothiazine] |  |  |  | 1% |  | 0% | Q4 | 24% | -84% |  |  |  |  |
| CC1(C)S[C@@H]2[C@H](NC(=O)COc3ccccc3)C(=O)N2[C@H]1C(=O)O [Phenoxymethylpenicillin] |  |  |  | 0% |  | 1% | Q4 | 14% | 0% |  |  |  |  |
| CN1C(=O)CC(c2ccccc2)C1=O (centres unmarked) [Phensuximide] |  |  |  | 0% |  | 1% | Q4 | 4% | -7% |  |  |  |  |
| Cc1ccc(N(CC2=NCCN2)c2cccc(O)c2)cc1 [Phentolamine] |  |  |  | 0% |  | 0% | Q4 | 17% | -21% |  |  |  |  |
| N[C@@H](COP(=O)(O)O)C(=O)O [Phosphonoserine] |  |  |  | 0% |  | 1% | Q4 | 10% | -6% |  |  |  |  |
| CC(=O)NS(=O)(=O)c1ccc(NC(=O)c2ccccc2C(=O)O)cc1 [Phthalylsulfacetamide] |  |  |  | 0% |  | 1% | Q4 | -1% | 1% |  |  |  |  |
| O=C(O)c1ccccc1C(=O)Nc1ccc(S(=O)(=O)Nc2nccs2)cc1 [Phthalylsulfathiazole] |  |  |  | 1% |  | 1% | Q4 | 13% | 3% |  |  |  |  |
| NCc1cccnc1 [Picolamine] |  |  |  | 0% |  | 1% | Q4 | 4% | -1% |  |  |  |  |
| OCc1ccccn1 [Piconol] |  |  |  | 1% |  | 1% | Q4 | 26% | -1% |  |  |  |  |
| O=C1CC[C@@H](C(=O)O)N1 [Pidolic Acid] |  |  |  | 0% |  | 1% | Q4 | 15% | -57% |  |  |  |  |
| O=C1CC[C@@H](C(=O)N2CSC[C@H]2C(=O)O)N1 [Pidotimod] ([pGlu]-[Thz]-OH) |  |  |  | 0% |  | 1% | Q4 | 14% | -10% |  |  |  |  |
| CC[C@@H]1C(=O)OC[C@@H]1Cc1cncn1C [Pilocarpine] |  |  |  | 0% |  | 1% | Q4 | 14% | -2% |  |  |  |  |
